Measured values reported in patent US9533023B2, “EIF4E binding peptides” (Agency for Science, Technology and Research, priority 2010, dated 2017).
Each block holds one compound with its values, some of them ahead of it. Square brackets hold non-standard residues; d marks the D form. Ends that are not written are not given here. Ac5c = NC1(C(=O)O)CCCC1; Aib = CC(C)(N)C(=O)O

Experiments:
eIF4E = target: T1, eIF4E (Homo sapiens, UniProt P06730); experiment: Fluorescence-based thermal stability (thermal shift) assay, FTS; type: binding; conditions: for eIF4E binding / Tm effect in FTS assay: 10 μM eIF4E, 100 μM peptide
T1 construct: Full length human eIF4E was expressed and purified; made in house
From the text: Full length human eIF4E was expressed and purified as described in Brown, C.
A fluorescence based thermal shift assay was used to screen and rank the rationally designed eIF4E binding derivative peptides. The fluorescent dye Sypro Red was used to monitor thermal denaturation of eIF4E. Binding of the dye molecule to eIF4E, as it unfolds due to thermal denaturation, results in a sharp increase in the fluorescence intensity. The midpoint of this transition is termed the Tm. The thermal shift assay was conducted in the iCycler Real Time Detection System (Bio-Rad, Hercules, Calif.). The system contains a heating/cooling device for accurate temperature control and a charge-coupled device (CCD) detector for simultaneous imaging of the fluorescence changes in the wells of the microplate. […] The final protein concentration was 10 μM. Protein samples were incubated with derivative peptides at a concentration of a 100 μM. The plate was heated from 20 to 90° C. with a heating rate of 1° C./min.
where Ft is the fluorescence intensity at temperature T; Tm is the midpoint temperature of the protein-unfolding transition, Fpre and Fpost are the pretransitional and posttransitional fluorescence intensities, respectively, R is the gas constant, ΔHu is the enthalpy of protein unfolding, and ΔCpu is the heat capacity change on protein unfolding. In the absence of ligand, Tm=T0, ΔCpu=ΔC^T0pu, and ΔHu=ΔH^T0u.
To calculate the ligand-binding affinity at Tm for the derivative eIF4E binding peptides, Eq. (2) was used:
To compare binding affinities for the derivative peptides to eIF4E calculated from the thermal shift data, the binding affinity at temperature T (KL(T))) must be calculated. KL(T) can be calculated from KL(Tm) using Eq. (3A): […]
where KL(T) is the ligand association constant at temperature T, and ΔHL(T) is the van't Hoff enthalpy of binding at temperature T. The value of ΔHL(T) was taken to be 5 kcal/mol.

[1] = test system: MCF-7 5′UTR_MYC_Gaussia reporter cell line; experiment: Cap-dependent translation cell-based assay (Gaussia luciferase); conditions: 6 hours
Description: To determine the efficacy of these peptides, a cell-based system to assay changes in cap-dependent translation was designed. […] A reporter line derived from the MCF-7 cell line that stably expresses the 5′UTR_MYC_Gaussia reporter was generated. The robustness of this model system was determined using rapamycin, which inhibits cap-dependent translation by inhibiting mTOR from phosphorylating 4EBPs.
MCF-7 (5′UTR_MYC_Gaussia) cells were cultured in DMEM with 10% FCS. Twenty thousand cells were then seeded per well in 48-wells plates in DMEM serum-free media overnight at 37° C. […] Cells were then cultured in media containing 10% FCS with Rapamycin for 24 hrs and at concentrations of 100 nM, 10 nM, 1 nM, 0.1 nM. Gaussia-Luc activities in cells were measured using Gaussia Luciferase Assay Kit (NEB) with SpectraMax M5 (molecular Devices).

[2] = test system: MCF-7 (5′UTR_MYC_Gaussia) cells; experiment: WST-1 assay (cell viability); type: cell-based; conditions: 30 μM, 48 hours after treatment
Description: MCF-7 (5′UTR_MYC_Gaussia) cells were cultured in DMEM with 10% FCS. Twenty thousand cells were then seeded per well in 48-wells plates in DMEM serum-free media overnight at 37° C. Before overnight incubation, cells were incubated at room temperature for 30 mins. […] After 48 hrs of treatment, MCF-7 cells were incubated with Cell Proliferation Reagent WST-1(Roche) for 30 mins at 37° C. Absorbances of cell media were then read at 450 nm with SpectraMax M5.

[3] = test system: endogenous c-myc in MCF-7 cells; experiment: Western blot of endogenous c-myc; type: cell-based; conditions: 15 μM peptide, 6 hours, vs PBS
Description: MCF-7 cells were cultured in DMEM with 10% FCS. Three hundred fifty thousand MCF-7 cells were then seeded per well in 6-wells plates containing DMEM serum-free media overnight at 37° C. […] A mock PBS treatment was also included. Cells were harvested at 6 hrs and lysed in RIPA buffer. Protein concentration was determined using a Lowry Assay kit (Bio-rad). Samples were loaded at 30 ug and blotted against monoclonal antibody c-myc (Sigma Aldrich #M4439). B-actin was blotted for as a loading control.

MCF-7 cells = experiment: Annexin staining, flow cytometry; type: cell-based; conditions: 30 μM, 48 hours
Description: MCF-7 cells were cultured in DMEM with 10% FCS. Two hundred fifty thousand cells were then seeded per well in 6-wells plates containing DMEM serum-free media overnight at 37° C. […] A mock PBS treatment was also included. Cells were harvested, washed in PBS and spun down at 200 g for 5 mins. Cell pellets were resuspended in Annexin-VFLUOS labeling solution from Roche and incubated for 10-15 min at 15-25° C. Cells were then analyzed using LSR II (BD).

[4] = test system: MCF-7 (5′UTR_MYC_Gaussia) cells; experiment: Propidium iodide staining and FACS analysis; type: cell-based; conditions: 48 hrs
Description: MCF-7 (5′UTR_MYC_Gaussia) cells were cultured in DMEM with 10% FCS. Two hundred fifty thousand cells were then seeded per well in 6-wells plates containing DMEM serum-free media overnight at 37° C. Before overnight incubation, cells were incubated at room temperature for 30 mins. […] A 1% DMSO and a PBS mock treatment was also carried out. Cells were harvested and fixed in 65% ethanol in PBS and incubated at 4° C. for 2 hrs. Cells were spun down and resuspended with Propidium iodide staining solution containing Rnase A. Cells were analyzed using LSR II (BD).

T1 sequence (P06730 whole entry): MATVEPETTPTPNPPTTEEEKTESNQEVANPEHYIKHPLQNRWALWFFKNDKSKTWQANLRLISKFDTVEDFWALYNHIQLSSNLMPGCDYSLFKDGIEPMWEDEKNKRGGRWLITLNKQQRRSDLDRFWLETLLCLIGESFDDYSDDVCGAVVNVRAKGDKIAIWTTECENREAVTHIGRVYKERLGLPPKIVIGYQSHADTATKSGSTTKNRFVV

Compound: GT_eIF4G1: eIF4G1 14mer with N-terminal GT linker, no TAT (GTKKRYDREFLLGFQF; not fully specified (C-terminus))
luciferase activity, difference versus control peptide ([1]; 30 μM): no significant difference | WST-1 assay, difference versus control peptide [2]: not significant

Compound: SEQ ID NO: 31: Tr2_AIB3_A5C with alanine at position 627 (YDRAFLL[Ac5c]FQF; not fully specified (C-terminus))
eIF4E binding / Tm effect in FTS assay (eIF4E): no significant increase or decrease in potency

Compound: YGRKKRRQRRR [TAT, reference compound]
eIF4E binding / Tm effect in FTS assay (eIF4E): no binding | inhibition of cap-dependent translation (luciferase output) ([1]; TAT peptides, up to 100 μM): not inhibited by TAT alone with only a slight decrease at 100 μM | endogenous c-myc expression [3]: identical | annexin staining of cells (apoptosis) (MCF-7 cells): few cells that could be stained

Compound: GTKKRYDRE*LL5FQF [GT_eIF4G1_me5]
inhibition of cap-dependent translation (luciferase output) ([1]; 100 μM and 200 μM): some biological activity in a dose responsive manner | inhibition of cap-dependent translation (luciferase output) ([1]; non-TAT peptides, 400 μM): significant decrease in luciferase output | WST-1 assay, difference versus control peptide [2]: marginally significant | cell cycle populations (sub G1, G1, S, G2), words ([4]; non TAT peptides 400 μM, vs DMSO control): significant increase in the sub G1 population

Compound: TAT_eIF4G1_Cntrl: control peptide equivalent to TAT_eIF4G1 (YGRKKRRQRRRGTKKRADREFAAGFQF; TAT_eIF4G1_Cntrl)
cell cycle populations (sub G1, G1, S, G2), words ([4]; TAT fused peptides 30 μM, vs PBS mock): no substantive differences | endogenous c-myc expression [3]: identical | annexin staining of cells (apoptosis) (MCF-7 cells): few cells that could be stained

Compound: SEQ ID NO: 29: Tr2_AIB3_A5C with alanine at position 625 (YAREFLL[Ac5c]FQF; not fully specified (C-terminus))
eIF4E binding / Tm effect in FTS assay (eIF4E): no significant increase or decrease in potency

The next lines start with results.

drop in thermal shift from AC14 to AC13 (eIF4E; difference vs AC14): ~2.1 °C
Compound: KRYDRE*LL5FQF [AC13]
inhibition of cap-dependent translation (luciferase output) ([1]; non-TAT peptides, 400 μM): noticeable drop in activity

eIF4E binding / Tm effect in FTS assay (eIF4E): increased the Tm
Compound: Tr2_AIB3: Tr2 peptide with G631 replaced by Aib (YDREFLLXFQF; Aib at position 631; Tr2_AIB3)

eIF4E binding / Tm effect in FTS assay (eIF4E): severely attenuated peptide binding
Compound: Tr2_AIB1: Tr2 peptide with D625 replaced by aminoisobutyric acid (Aib) (Y[Aib]REFLLGFQF)

eIF4E binding / Tm effect in FTS assay (eIF4E): severely attenuated peptide binding
Compound: Tr2_AIB4: Tr2 peptide with Q633 replaced by Aib (YDREFLLGF[Aib]F)

eIF4E binding / Tm effect in FTS assay (eIF4E): all eIF4E binding is lost
Compound: SEQ ID NO: 20: 11mer control peptide with the conserved tyrosine mutated to alanine (ADREFLLGFQF; Control) [reference compound]

eIF4E binding / Tm effect in FTS assay (eIF4E): significantly increased
Compound: CC(C)C[C@H](NC(=O)[C@H](Cc1ccccc1)NC(=O)[C@H](CCC(=O)O)NC(=O)[C@H](CCCNC(=N)N)NC(=O)[C@H](CC(=O)O)NC(=O)[C@@H](N)Cc1ccc(O)cc1)C(=O)N[C@@H](CC(C)C)C(=O)NC1(C(=O)N[C@@H](Cc2ccccc2)C(=O)N[C@@H](CCC(N)=O)C(=O)N[C@@H](Cc2ccccc2)C(=O)O)CCCC1 [Tr2_AIB3_A5C, YDREFLL5FQF]

eIF4E binding / Tm effect in FTS assay (eIF4E): abolished measurable peptide binding
Compound: Tr2_AIB2: Tr2 peptide with E627 replaced by Aib (YDR[Aib]FLLGFQF)
